These results are taken from US10759799B2, “Indazole containing macrocycles and therapeutic uses thereof” (Samumed, LLC, priority 2018, dated 2020).

The conditions of data set [1]: from NCc1cncc(-c2ccc3[nH]nc(C(=O)Nc4cncc(-c5cccc(CCC(=O)O)c5)c4)c3c2)c1; amide bond; 20-membered ring; HATU/DIEA/DMAP; DMF; 20.0 mM; 37.0 °C.
Data set [2] concerns Wnt activity (Sp5-Luc reporter, SW480 colon carcinoma cells). Nature of the data set: Sp5-Luc reporter gene screening assay for Wnt activity in SW480 cells. Type of data set: cell-based. Conditions: Homo sapiens; for EC50: Sp5-Luc reporter, SW480 cells, 36 to 48 hours. From the text: The screening assay for Wnt activity is described as follows. Reporter cell lines can be generated by stably transducing cancer cell lines (e.g., colon cancer) or primary cells (e.g., IEC-6 intestinal cells) with a lentiviral construct that includes a Wnt-responsive promoter driving expression of the firefly luciferase gene.
SW480 colon carcinoma cells were transduced with a lentiviral vector expressing luciferase with a human Sp5 promoter consisting of a sequence of eight TCF/LEF binding sites. SW480 cells stably expressing the Sp5-Luc reporter gene and a hygromycin resistance gene were selected by treatment with 150 μg/mL of hygromycin for 7 days. These stably transduced SW480 cells were expanded in cell culture and used for all further screening activities. […] For Sp5-Luc reporter gene assays, the cells were plated at 4,000 cells/well in 384-well plates with a DMEM medium containing 1% fetal bovine serum, and 1% Penicillin-Streptomycin and incubated for 36 to 48 hours at 37° C. and 5% CO2. Following incubation, 15 μl of BriteLite Plus luminescence reagent (Perkin Elmer) was added to each well of the 384-well assay plates. The plates were placed on an orbital shaker for 2 min and then luminescence was quantified using the Envision (Perkin Elmer) plate reader. Readings were normalized to DMSO only treated cells, and normalized activities were utilized for EC50 calculations using the dose-response log (inhibitor) vs. response-variable slope (four parameters) nonlinear regression feature available in GraphPad Prism 5.0 (or Dotmatics).

Data set [3] concerns primary human fibroblasts derived from IPF patients (LL29 cells). Nature of the data set: Inhibition of TGF-β1 induced fibrosis (αSMA staining) in LL29 fibroblasts. Format: cell-based. Conditions: Fibroblast, 96 h, LL29 cells, TGF-β1 20 ng/mL, 4 days, % αSMA positive cells. How it is done:
Representative compounds were screened using primary human fibroblasts (derived from IPF patients) treated with TGF-β1 to determine their ability to inhibit the fibrotic process.
LL29 cells were plated at 1,500 cells/well in 70 μL/well F12 medium supplemented with 1% Fetal Bovine Serum. […] Wells treated with TGF-β1 and containing DMSO were used as positive control, and cells with only DMSO were negative control. […] Following incubation for 4 days, SYTOX green nucleic acid stain (Life Technologies [Thermo Fisher Scientific]) was added to the wells at a final concentration of 1 μM and incubated at room temperature for 30 min.

In data set [4] the test system is primary human mesenchymal stem cells (hMSCs). Nature of the data set: Chondrogenesis induction in hMSCs (Rhodamine B staining intensity, EC50). Format: cell-based. Conditions: 6 days, Rhodamine B staining intensity of nodules. From the text: (§1) Representative compounds were screened using primary human mesenchymal stem cells (hMSCs) to determine their ability to induce chondrogenesis (process by which cartilage is developed).
Primary human mesenchymal stem cells (hMSCs) were purchased from Lonza (Walkersville, Md.) and expanded in Mesenchymal Stem Cell Growth Media (Lonza). Cells between passage 2 and 4 were used for the experiments.
To image chondrogenic nodules, the cells were fixed using 4% formaldehyde (Electron Microscopy Sciences), and stained with 2 μg/mL Rhodamine B (Sigma-Aldrich) and 20 μM Nile Red (Sigma-Aldrich) [Johnson K., et. al, A Stem Cell-Based Approach to Cartilage Repair, Science, (2012), 336(6082). […] Rhodamine B staining intensity of nodules in each well was normalized to the average of 3 DMSO treated wells on the same plate using Excel (Microsoft Inc.). The normalized averages (fold change over DMSO) of 3 replicate wells for each compound concentration were calculated. EC50 values were calculated using non-linear regression curve fitting in Prism 8 (Graphpad Inc.). Due to solubility limitations of some of the compounds, curve fitting was incomplete, and the highest observed activity was extrapolated to the insoluble doses for accurate EC50 determinations.
EC50 values are reported. Further, using TGF-β3 as a positive control, the concentration of representative compounds required to induce equivalent levels of chondrogenesis is reported. In addition, the maximum activity of each compound and the respective dose that each compound reached maximum chondrogenesis activity is reported.

The test system is the same in data set [5]. Nature of the data set: Chondrogenesis induction in hMSCs (nodule count, relative to TGF-β3). Format: cell-based. As to conditions: 6 days.
Source text: as §1
Human Mesenchymal Stem Cell Culture: Primary human mesenchymal stem cells (hMSCs) were purchased from Lonza (Walkersville, Md.) and expanded in Mesenchymal Stem Cell Growth Media (Lonza). Cells between passage 3 and 6 were used for the experiments.
Number of nodules in each well was normalized to the average of 3 DMSO treated wells on the same plate using Excel (Microsoft Inc.). The normalized averages (fold change over DMSO) of 3 replicate wells for each compound concentration were calculated. Due to solubility limitations of some of the compounds, curve fitting was incomplete leading to inaccurate EC50 determinations.
Using TGF-β3 as a positive control, the concentration of representative compounds required to induce equivalent levels of chondrogenesis is reported. In addition, the maximum activity of each compound and the respective dose that each compound reached maximum chondrogenesis activity is reported.

[6] abbreviates: TGF-β3 10 ng/mL positive control.

`O=C1CCc2cccc(c2)-c2cncc(c2)NC(=O)c2n[nH]c3ccc(cc23)-c2cncc(c2)CN1` [Compound 97, 2^1H-4,10-diaza-2(5,3)-indazola-1,5(3,5)-dipyridina-6(1,3)-benzenacycloundecaphane-3,9-dione]: the ring closure, isolated yield in data set [1] stood at 20.8%. For the same molecule, the inhibition at 10 µM in data set [2] (SW480, read-out: percent inhibition at 10 μM) is 22.2%. Moreover, the results for the concentration for a half-maximal effect (EC50) in data set [2], in data set [3] and in data set [4] were > 10000 nM, 406 nM and 69 nM, respectively.
Regarding `O=C1COc2cccc(c2)-c2cncc3[nH]c(nc23)-c2n[nH]c3ccc(cc23)-c2cncc(c2)N1` [Compound 38, (Z)-2^3H,3^1H-8-Oxa-5-aza-2(7,2)-imidazo[4,5-c]pyridina-3(3,5)-indazola-4(3,5)-pyridina-1(1,3)-benzenacyclooctaphan-6-one], the EC50 came to 87 nM in data set [2], 38 nM in data set [3] and 36 nM in data set [4]. In data set [5] (setting [6]), the “Conc (nM) of 50% TGF-β3 activity” value was determined as 100 nM. Besides, in data set [5] (setting [6]), the “Max. Activity as % TGF-β3 activity” value is recorded as 185%. Further, the “Conc (nM) of Max. activity” value in data set [5] (chondrogenic nodules) is recorded as 100 nM.

For orientation: inhibition means the relative decrease from the control value, in per cent. As usually defined, the EC50 is the concentration at which the effect is half-maximal.
